# From BindingDB's records for doi:10.1016/j.bmcl.2012.07.091 (University of Copenhagen, 2012)
# pIC50, pKi: −log10 of the molar value.
# Target: T1, Lysine-specific demethylase 4C (Homo sapiens, UniProt Q9H3R0)
# T1 sequence (Q9H3R0 whole entry): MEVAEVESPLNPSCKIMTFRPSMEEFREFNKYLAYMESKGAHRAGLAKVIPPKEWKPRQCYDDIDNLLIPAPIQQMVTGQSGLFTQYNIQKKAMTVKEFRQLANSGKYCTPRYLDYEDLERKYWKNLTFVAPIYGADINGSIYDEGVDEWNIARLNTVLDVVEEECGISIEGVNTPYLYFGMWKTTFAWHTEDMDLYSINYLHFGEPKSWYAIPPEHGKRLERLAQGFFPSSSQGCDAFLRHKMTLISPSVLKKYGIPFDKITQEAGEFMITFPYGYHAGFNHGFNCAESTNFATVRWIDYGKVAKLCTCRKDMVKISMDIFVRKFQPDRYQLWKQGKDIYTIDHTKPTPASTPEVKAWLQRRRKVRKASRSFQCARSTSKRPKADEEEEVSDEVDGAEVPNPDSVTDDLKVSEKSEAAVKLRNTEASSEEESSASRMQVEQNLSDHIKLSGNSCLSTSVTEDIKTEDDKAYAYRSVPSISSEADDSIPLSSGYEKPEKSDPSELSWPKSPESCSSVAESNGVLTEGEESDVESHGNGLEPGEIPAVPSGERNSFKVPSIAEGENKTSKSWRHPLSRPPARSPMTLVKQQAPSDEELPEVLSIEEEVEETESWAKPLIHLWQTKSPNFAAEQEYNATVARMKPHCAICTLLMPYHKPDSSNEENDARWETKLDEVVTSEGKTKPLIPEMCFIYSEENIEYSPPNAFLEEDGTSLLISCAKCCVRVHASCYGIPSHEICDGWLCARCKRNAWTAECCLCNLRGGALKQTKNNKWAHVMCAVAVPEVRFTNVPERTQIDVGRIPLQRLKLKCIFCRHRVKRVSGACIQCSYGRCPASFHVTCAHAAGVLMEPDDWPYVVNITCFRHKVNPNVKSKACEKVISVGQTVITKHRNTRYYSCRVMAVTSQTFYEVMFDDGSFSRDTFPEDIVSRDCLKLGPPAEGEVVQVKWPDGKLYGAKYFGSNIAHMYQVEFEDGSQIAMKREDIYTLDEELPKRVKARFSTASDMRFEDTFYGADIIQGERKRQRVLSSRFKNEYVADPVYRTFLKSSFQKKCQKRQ
# Test: Inhibition of KDM4C catalytic core-mediated demethylation of ARK(Me)3STGGK after 30 mins by FDH-coupled assay
pIC50,pKi,SMILES
< 3.70,< 3.70,CNC(=O)c1n[nH]n(C)c1=O
< 3.70,< 3.70,OCC1C(Cl)N=NN1c1ccccc1 (stereo unspecified)
< 3.70,< 3.70,CN1CN(Cc2ccccc2)CC1=S
